In paper PMC7402526, “An in vitro quantitative systems pharmacology approach for deconvolving mechanisms of drug-induced, multilineage cytopenias” (PLoS Computational Biology, 2020):

Assays:
[1] = system: total viable cells (totalViableCells); assay: MLTA, total live cells concentration-response; assay type: cell-based; settings: Homo sapiens, 144 h, 6 days, normalized to vehicle control, read-out: total_live normalized cell count
Procedure, shortened: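 Freeze-thawed primary human bone marrow CD34+ cells in SFEM II with cytokine cocktail, drug added day 0, 6 days at 37°C, 5% CO2. Live/dead counts by 17-parameter flow cytometry with DAPI exclusion, bead-normalized, volume-corrected to cells/mL. Normalized per donor to mean of six vehicle wells; 2–7 donors pooled.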

[2] = system: granulocyte-macrophage progenitor (GMPs); assay: MLTA, GMPs: concentration-response and QSP model fit; assay type: cell-based, human; settings: Homo sapiens, 144 h
Procedure, shortened: (§1)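 Freeze-thawed primary human bone marrow CD34+ cells were grown in SFEM II with a multi-lineage cytokine cocktail, drug added day 0, six days at 37°C. Lineage counts came from 17-parameter flow with TruCount beads, vehicle-normalized per donor, then fitted by an Emax-based QSP model.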

[3] = system: early erythroid cells (Eryth I); assay: MLTA, ErythI: concentration-response and QSP model fit; assay type: cell-based, human; settings: Homo sapiens, 144 h
Procedure, shortened: (§2)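 Parameters come from fitting an Emax-based QSP model, with L1 regularization and Emax ranging 0–2, to vehicle-normalized, bead-corrected flow cytometry counts. Counts came from human bone marrow CD34+ cells treated from day 0 through a 6-day multi-lineage cytokine culture in SFEM II, using 2–7 donors per drug.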

[4] = system: granulocyte progenitor (Gran-lin prog); assay: MLTA, GranP: concentration-response and QSP model fit; assay type: cell-based, human; settings: Homo sapiens, 144 h
Procedure, shortened: as §2

[5] = system: B cells (B-lin); assay: MLTA, B-lin: concentration-response and QSP model fit; assay type: cell-based, human; settings: Homo sapiens, B-cell, 144 h
Procedure, shortened: as §1

[6] = system: MK cells (MK-lin); assay: MLTA, MK: concentration-response and QSP model fit; assay type: cell-based, human; settings: Homo sapiens, 144 h
Procedure, shortened: as §1

[7] = system: multi-potent progenitors (MPPs); assay: MLTA, MPPs: concentration-response and QSP model fit; assay type: cell-based, human; settings: Homo sapiens, 144 h
Procedure, shortened: as §1

[8] = system: lymphocyte progenitors (LymP); assay: MLTA, LymP: concentration-response and QSP model fit; assay type: cell-based, human; settings: Homo sapiens, Lymphocyte, 144 h
Procedure, shortened: as §1

[9] = QSP model fit of 6-day MLTA data

EC50 [2, 9]: 54.6 nM
EC50 [5, 9]: 90.6 nM
EC50 [6, 9]: 759 nM
SMILES: CC(=O)c1c(C)c2cnc(Nc3ccc(N4CCNCC4)cn3)nc2n(C2CCCC2)c1=O [palbociclib]
viability at 0.0002 µM ([1]; dose 0.2 nM): 94.8%
viability at 0.001 µM ([1]; dose 1 nM): 99.6%
viability at 0.005 µM ([1]; dose 5 nM): 91.8%
viability at 0.025 µM ([1]; dose 25 nM): 69.8%
viability at 0.1 µM ([1]; dose 100 nM): 39.6%
viability at 0.5 µM ([1]; dose 500 nM): 15.4%
viability at 2.5 µM ([1]; dose 2500 nM): 6.06%
activity at 0.0002 µM ([2]; dose 0.2 nM, 6 days, normalized to vehicle control, read-out: GMPs normalized cell count): 92.3%
activity at 0.001 µM ([2]; dose 1 nM, 6 days, normalized to vehicle control, read-out: GMPs normalized cell count): 94.2%
activity at 0.005 µM ([2]; dose 5 nM, 6 days, normalized to vehicle control, read-out: GMPs normalized cell count): 92.5%
activity at 0.025 µM ([2]; dose 25 nM, 6 days, normalized to vehicle control, read-out: GMPs normalized cell count): 76.3%
activity at 0.1 µM ([2]; dose 100 nM, 6 days, normalized to vehicle control, read-out: GMPs normalized cell count): 53.9%
activity at 0.5 µM ([2]; dose 500 nM, 6 days, normalized to vehicle control, read-out: GMPs normalized cell count): 23.9%
activity at 2.5 µM ([2]; dose 2500 nM, 6 days, normalized to vehicle control, read-out: GMPs normalized cell count): 4.62%
activity at 0.0002 µM ([3]; dose 0.2 nM, 6 days, normalized to vehicle control, read-out: ErythI normalized cell count): 104%
activity at 0.001 µM ([3]; dose 1 nM, 6 days, normalized to vehicle control, read-out: ErythI normalized cell count): 109%
activity at 0.005 µM ([3]; dose 5 nM, 6 days, normalized to vehicle control, read-out: ErythI normalized cell count): 96.4%
activity at 0.025 µM ([3]; dose 25 nM, 6 days, normalized to vehicle control, read-out: ErythI normalized cell count): 72.1%
activity at 0.1 µM ([3]; dose 100 nM, 6 days, normalized to vehicle control, read-out: ErythI normalized cell count): 35.1%
activity at 0.5 µM ([3]; dose 500 nM, 6 days, normalized to vehicle control, read-out: ErythI normalized cell count): 9.41%
activity at 2.5 µM ([3]; dose 2500 nM, 6 days, normalized to vehicle control, read-out: ErythI normalized cell count): 2.34%
Emax ([3]; parameter from QSP model fitting, read-out: Emax_drug_ErythroidI): 0.04%
activity at 0.0002 µM ([4]; dose 0.2 nM, 6 days, normalized to vehicle control, read-out: GranPs normalized cell count): 98.2%
activity at 0.001 µM ([4]; dose 1 nM, 6 days, normalized to vehicle control, read-out: GranPs normalized cell count): 107%
activity at 0.005 µM ([4]; dose 5 nM, 6 days, normalized to vehicle control, read-out: GranPs normalized cell count): 91.8%
activity at 0.025 µM ([4]; dose 25 nM, 6 days, normalized to vehicle control, read-out: GranPs normalized cell count): 73.4%
activity at 0.1 µM ([4]; dose 100 nM, 6 days, normalized to vehicle control, read-out: GranPs normalized cell count): 37%
activity at 0.5 µM ([4]; dose 500 nM, 6 days, normalized to vehicle control, read-out: GranPs normalized cell count): 8.03%
activity at 2.5 µM ([4]; dose 2500 nM, 6 days, normalized to vehicle control, read-out: GranPs normalized cell count): 0.794%
Emax ([4]; parameter from QSP model fitting, read-out: Emax_drug_GranP): 4.7%
activity at 0.0002 µM ([5]; dose 0.2 nM, 6 days, normalized to vehicle control, read-out: B-lin normalized cell count): 93.4%
activity at 0.001 µM ([5]; dose 1 nM, 6 days, normalized to vehicle control, read-out: B-lin normalized cell count): 106%
activity at 0.005 µM ([5]; dose 5 nM, 6 days, normalized to vehicle control, read-out: B-lin normalized cell count): 76.6%
activity at 0.025 µM ([5]; dose 25 nM, 6 days, normalized to vehicle control, read-out: B-lin normalized cell count): 67.3%
activity at 0.1 µM ([5]; dose 100 nM, 6 days, normalized to vehicle control, read-out: B-lin normalized cell count): 41.4%
activity at 0.5 µM ([5]; dose 500 nM, 6 days, normalized to vehicle control, read-out: B-lin normalized cell count): 13.8%
activity at 2.5 µM ([5]; dose 2500 nM, 6 days, normalized to vehicle control, read-out: B-lin normalized cell count): 8.85%
Emax ([5]; parameter from QSP model fitting, read-out: Emax_drug_B): 49.9%
activity at 0.0002 µM ([6]; dose 0.2 nM, 6 days, normalized to vehicle control, read-out: MK normalized cell count): 86%
activity at 0.001 µM ([6]; dose 1 nM, 6 days, normalized to vehicle control, read-out: MK normalized cell count): 96.6%
activity at 0.005 µM ([6]; dose 5 nM, 6 days, normalized to vehicle control, read-out: MK normalized cell count): 89.1%
activity at 0.025 µM ([6]; dose 25 nM, 6 days, normalized to vehicle control, read-out: MK normalized cell count): 91.2%
activity at 0.1 µM ([6]; dose 100 nM, 6 days, normalized to vehicle control, read-out: MK normalized cell count): 62.2%
activity at 0.5 µM ([6]; dose 500 nM, 6 days, normalized to vehicle control, read-out: MK normalized cell count): 23.6%
activity at 2.5 µM ([6]; dose 2500 nM, 6 days, normalized to vehicle control, read-out: MK normalized cell count): 7.89%
Emax ([6]; parameter from QSP model fitting, read-out: Emax_drug_MK): 7.37%
activity at 0.0002 µM ([7]; dose 0.2 nM, 6 days, normalized to vehicle control, read-out: MPPs normalized cell count): 86.4%
activity at 0.001 µM ([7]; dose 1 nM, 6 days, normalized to vehicle control, read-out: MPPs normalized cell count): 88.4%
activity at 0.005 µM ([7]; dose 5 nM, 6 days, normalized to vehicle control, read-out: MPPs normalized cell count): 77.3%
activity at 0.025 µM ([7]; dose 25 nM, 6 days, normalized to vehicle control, read-out: MPPs normalized cell count): 45.6%
activity at 0.1 µM ([7]; dose 100 nM, 6 days, normalized to vehicle control, read-out: MPPs normalized cell count): 23.3%
activity at 0.5 µM ([7]; dose 500 nM, 6 days, normalized to vehicle control, read-out: MPPs normalized cell count): 11%
activity at 2.5 µM ([7]; dose 2500 nM, 6 days, normalized to vehicle control, read-out: MPPs normalized cell count): 5.77%
Emax ([7]; parameter from QSP model fitting, read-out: Emax_drug_MPP): 0.0264%
activity at 0.0002 µM ([8]; dose 0.2 nM, 6 days, normalized to vehicle control, read-out: LymP normalized cell count): 86.1%
activity at 0.001 µM ([8]; dose 1 nM, 6 days, normalized to vehicle control, read-out: LymP normalized cell count): 88%
activity at 0.005 µM ([8]; dose 5 nM, 6 days, normalized to vehicle control, read-out: LymP normalized cell count): 73.1%
activity at 0.025 µM ([8]; dose 25 nM, 6 days, normalized to vehicle control, read-out: LymP normalized cell count): 38%
activity at 0.1 µM ([8]; dose 100 nM, 6 days, normalized to vehicle control, read-out: LymP normalized cell count): 12.4%
activity at 0.5 µM ([8]; dose 500 nM, 6 days, normalized to vehicle control, read-out: LymP normalized cell count): 5.18%
activity at 2.5 µM ([8]; dose 2500 nM, 6 days, normalized to vehicle control, read-out: LymP normalized cell count): 4.62%
Emax ([8]; parameter from QSP model fitting, read-out: Emax_drug_LymP): 0.032%
